In PMC3651692 (Bioorganic & medicinal chemistry letters, 2013):

Target: μ-opioid receptor (MOR) (Homo sapiens, UniProt P35372)
Format: binding

μ-opioid receptor (MOR), sequence (P35372 whole entry, species assumed): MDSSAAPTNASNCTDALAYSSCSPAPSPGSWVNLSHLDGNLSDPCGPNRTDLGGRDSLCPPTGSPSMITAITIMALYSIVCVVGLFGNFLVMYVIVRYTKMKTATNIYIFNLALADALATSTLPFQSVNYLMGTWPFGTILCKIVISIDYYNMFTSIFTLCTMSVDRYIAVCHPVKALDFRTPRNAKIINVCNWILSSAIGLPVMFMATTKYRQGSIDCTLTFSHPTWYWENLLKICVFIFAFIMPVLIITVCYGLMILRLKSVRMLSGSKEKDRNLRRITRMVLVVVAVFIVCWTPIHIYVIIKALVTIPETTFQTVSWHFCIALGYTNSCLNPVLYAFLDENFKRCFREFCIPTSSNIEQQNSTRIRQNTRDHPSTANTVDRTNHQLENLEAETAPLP

Row | Structure (SMILES) | Affinities Ki± SD MOR
1 | COC(=O)[C@@H]1C[C@H](OC(=O)/C=C\C(=O)O)C(=O)[C@H]2[C@@]1(C)CC[C@H]1C(=O)O[C@H](c3ccoc3)C[C@]21C [Compound 13] | no affinity

Target: κ-opioid receptor (KOR) (Homo sapiens, UniProt P41145)
Format: binding

κ-opioid receptor (KOR), sequence (P41145 whole entry): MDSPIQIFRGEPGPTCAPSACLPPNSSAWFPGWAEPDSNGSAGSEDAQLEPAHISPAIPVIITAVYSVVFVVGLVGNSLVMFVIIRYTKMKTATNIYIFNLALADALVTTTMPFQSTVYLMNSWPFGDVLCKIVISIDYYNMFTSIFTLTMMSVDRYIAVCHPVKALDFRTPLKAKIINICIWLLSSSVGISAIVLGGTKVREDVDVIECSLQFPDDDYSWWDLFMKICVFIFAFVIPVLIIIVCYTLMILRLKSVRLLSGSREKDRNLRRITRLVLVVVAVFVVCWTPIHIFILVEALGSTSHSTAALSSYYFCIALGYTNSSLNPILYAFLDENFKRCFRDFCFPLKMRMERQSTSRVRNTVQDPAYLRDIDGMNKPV

Row | Structure (SMILES) | Selectivity MOR/KOR | Fold reduction of KOR affinity compared to 1 [fold] | Selectivity DOR/KOR | Affinities Ki± SD KOR
2 | COC(=O)CC(=O)O[C@H]1C[C@@H](C(=O)OC)[C@]2(C)CC[C@H]3C(=O)O[C@H](c4ccoc4)C[C@]3(C)[C@H]2C1=O [Compound 4] | >5000 | – | – | –
3 | CCOC(=O)CC(=O)O[C@H]1C[C@@H](C(=O)OC)[C@]2(C)CC[C@H]3C(=O)O[C@H](c4ccoc4)C[C@]3(C)[C@H]2C1=O [Compound 5] | >476 | 3 | >476 | –
4 | COC(=O)[C@@H]1C[C@H](OC(=O)CC(=O)OC(C)(C)C)C(=O)[C@H]2[C@@]1(C)CC[C@H]1C(=O)O[C@H](c3ccoc3)C[C@]21C [Compound 6] | >67 | 24 | >67 | –
5 | COC(=O)CCC(=O)O[C@H]1C[C@@H](C(=O)OC)[C@]2(C)CC[C@H]3C(=O)O[C@H](c4ccoc4)C[C@]3(C)[C@H]2C1=O [Compound 7] | >277 | 6 | >277 | –
6 | CCOC(=O)CCC(=O)O[C@H]1C[C@@H](C(=O)OC)[C@]2(C)CC[C@H]3C(=O)O[C@H](c4ccoc4)C[C@]3(C)[C@H]2C1=O [Compound 8] | >23 | 70 | >23 | –
7 | COC(=O)CCCC(=O)O[C@H]1C[C@@H](C(=O)OC)[C@]2(C)CC[C@H]3C(=O)O[C@H](c4ccoc4)C[C@]3(C)[C@H]2C1=O [Compound 9] | – | 49 | >33 | –
8 | COC(=O)CCCCC(=O)O[C@H]1C[C@@H](C(=O)OC)[C@]2(C)CC[C@H]3C(=O)O[C@H](c4ccoc4)C[C@]3(C)[C@H]2C1=O [Compound 10] | >17 | – | >17 | –
9 | COC(=O)[C@@H]1C[C@H](OC(=O)CCCC(=O)O)C(=O)[C@H]2[C@@]1(C)CC[C@H]1C(=O)O[C@H](c3ccoc3)C[C@]21C [Compound 12] | – | – | >38 | –
10 | COC(=O)[C@@H]1C[C@H](OC(=O)/C=C\C(=O)O)C(=O)[C@H]2[C@@]1(C)CC[C@H]1C(=O)O[C@H](c3ccoc3)C[C@]21C [Compound 13] | – | – | – | no affinity
11 | COC(=O)/C=C/C(=O)O[C@H]1C[C@@H](C(=O)OC)[C@]2(C)CC[C@H]3C(=O)O[C@H](c4ccoc4)C[C@]3(C)[C@H]2C1=O [Compound 14] | – | 6 | >256 | –
12 | CCOC(=O)/C=C/C(=O)O[C@H]1C[C@@H](C(=O)OC)[C@]2(C)CC[C@H]3C(=O)O[C@H](c4ccoc4)C[C@]3(C)[C@H]2C1=O [Compound 15] | – | – | >23 | –
13 | COC(=O)[C@@H]1C[C@H](OC(=O)c2ccccc2C(=O)O)C(=O)[C@H]2[C@@]1(C)CC[C@H]1C(=O)O[C@H](c3ccoc3)C[C@]21C [Compound 16] | >4 | – | >4 | –

Target: δ-opioid receptor (DOR) (Homo sapiens, UniProt P41143)
Sequence (P41143 whole entry): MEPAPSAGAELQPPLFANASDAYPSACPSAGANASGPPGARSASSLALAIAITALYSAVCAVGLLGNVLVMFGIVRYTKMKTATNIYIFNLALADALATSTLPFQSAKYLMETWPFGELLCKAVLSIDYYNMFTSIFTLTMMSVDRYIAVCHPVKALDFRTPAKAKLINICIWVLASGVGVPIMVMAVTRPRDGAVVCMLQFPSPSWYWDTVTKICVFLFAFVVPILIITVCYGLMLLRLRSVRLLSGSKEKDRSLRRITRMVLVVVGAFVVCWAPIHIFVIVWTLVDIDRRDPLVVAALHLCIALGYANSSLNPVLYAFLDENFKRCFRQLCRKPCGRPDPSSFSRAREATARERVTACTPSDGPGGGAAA
Format: binding

Row | Structure (SMILES) | Affinities Ki± SD DOR
14 | COC(=O)[C@@H]1C[C@H](OC(=O)/C=C\C(=O)O)C(=O)[C@H]2[C@@]1(C)CC[C@H]1C(=O)O[C@H](c3ccoc3)C[C@]21C [Compound 13] | no affinity
